Assay results published in patent US8206704B2, “Use of GCC ligands” (priority 2003, dated 2012).
Entries after “also recorded” stand apart in the source; their conditions may differ. No end group written: not given here.

Experiments:
T84 cells [1] = experiment: DNA synthesis ([methyl-3H]thymidine incorporation), tumor cell proliferation; type: cell-based, human; details: for Effect of agent on inhibition of proliferation induced by ST: with ST, 1 μM KT5823, 50 μM RP8pCPT-cGMP, 0.5 μM KT5720, 50 μM RP-cAMPs, 10 μM milrinone, 200 μM L-DLT, 20 μM BAPTA, 50 μM DTR, 1 μM PHE, 100 nM CTX
Description: T84 (passages 50-70) and SW480 (passage 100-120) human colon carcinoma cells, obtained from the American Type Culture Collection, were maintained at 37° C. (5% CO2) in DMEM/F12 containing 2.5 mM L-glutamine, 100 units/ml penicillin, 100 μg/ml streptomycin, and 10% (vol/vol) FBS.
Exponentially growing cancer cells (˜60% confluent in 96-well plates) were synchronized by serum starvation in Eagle's minimal essential medium (EMEM) for 48 h, followed by proliferative induction with 10 mM L-glutamine (in EMEM) for 24 h. ST and other agents were added to cells 15 min before 0.2 μCi per well (1 Ci=37 GBq) of [methyl-3H]thymidine, which was added for 3 h, followed by quantification of [3H]thymidine incorporation into DNA (15).

[2] = tested on: human T84 colon cancer cells; experiment: Perforated whole-cell patch-clamp current measurements; type: cell-based; details: for Induction of L-DLT-sensitive membrane current: 500 nM ST, 2.5 mM 8-br-cGMP
Description: The perforated mode of the whole-cell patch-clamp recording was applied to human T84 colon cancer cells. Membrane potential was controlled through the electrical access obtained by membrane perforation induced by amphotericin B (9, 10). The pipette solution supplemented by amphotericin B ([…]) contained: 140 mM KCl, 1 mM MgCl2, 5 mM EGTA, and 20 mM Hepes-KOH (pH 7.3). The bath solution contained (in mM): 136.5 mM NaCl, 5.4 mM KCl, 1.8 mM CaCl2, 0.5 mM MgCl2, 5.5 mM glucose, and 5 mM Hepes-NaOH (pH 7.4). Voltage-clamp recordings were performed with an Axopatch 1-C patch-clamp amplifier (Axon Instruments, Foster City, Calif.) at 31±1° C. using an HCC-100 temperature controller (Dagan Instruments, Minneapolis; ref. 19).

T84 cells [3] = experiment: 45Ca2+ transport (calcium influx); type: cell-based, human; details: ST 1 μM, 20 min; 8-br-cGMP 5 mM, 40 min
Description: Exponentially growing T84 cells (40-80% confluent in 24-well plates) were incubated in media (S-MEM, Life Technologies, Rockville, Md.) containing low (300 μM) CaCl2 to maximize the signal-to-noise ratio for L-cis-diltiazem (L-DLT)-sensitive 45Ca2+ transport determinations. Cells were treated with ST, 8-br-cGMP, and/or L-DLT for the indicated times, followed by the addition of 1 μCi per well 45Ca2+ for the last 15 min. Incubations were terminated by washing four times in cold PBS buffer (145 mM NaCl/5 mM KCl/1 mM MgCl2/10 mM glucose/5 mM Hepes, pH 7.4) containing 0.1 mM EGTA, cells were solubilized with cold NaOH (0.1 M), and radioactivity was quantified in 100-μl aliquots.

[4] = tested on: human T84 colon cancer cells; experiment: Perforated whole-cell patch-clamp current measurements; type: cell-based; details: Ca-free solution, n=5
[5] = target: cAMP-dependent protein kinase I and II; details: refs. 50 and 51; cited from earlier work
PKG-I and -II = details: cited from earlier work
[6] = tested on: matrix metalloproteinase 9 release from human colorectal cancer cells; experiment: Release of matrix metalloproteinase 9 (MMP 9 activity, western blot); type: cell-based; details: ST 1 micromolar
From the text: Preventing the secretion of this digestive enzyme will inhibit the ability of these tumor cells to invade the wall of the intestine. […] ST did this at a concentration of 1 micromolar.

[7] = tested on: human colorectal cancer cells; experiment: Actin cytoskeleton organization (confocal microscopy, cell spreading); type: cell-based; details: ST 1 micromolar, confocal microscopy
From the text: ST prevented human colorectal cancer cells from organizing their actin cytoskeleton. […] The latter is a functional readout of the ability of cells to organize actin. Human colorectal cancer cells treated with ST cannot spread their bodies out in vitro. An inability to organize their actin cytoskeletons will prevent these cells from being able to migrate through tissues to metastasize.

[8] = tested on: T84 human colon carcinoma cells; experiment: Inhibition of proliferation of cancer cells; type: cell-based; details: after exposure
[9] = tested on: Caco 2 human colon carcinoma cells; experiment: Inhibition of proliferation of cancer cells; type: cell-based; details: after exposure

Nc1nc2c(nc(Br)n2[C@@H]2O[C@@H]3COP(=O)(O)O[C@H]3[C@H]2O)c(=O)[nH]1 [8-br-cGMP]
Inhibition of cell proliferation / DNA synthesis by 8-br-cGMP (T84 cells [1]; 8-br-cGMP 5 mM): inhibited tumor cell DNA synthesis; also recorded: inhibition of cell proliferation | Induction of Ca2+-dependent K+ current (KCa), charybdotoxin-sensitive [2]: induced | Reversal potential derived from the induced current-voltage relationship [2]: ~−70 mV | Induction of L-DLT-sensitive membrane current [2]: induced an L-DLT-sensitive current | Induction of L-DLT-sensitive membrane current ([2]; listed as 8-Br-cGMP): induces an L-DLT-sensitive current | Induced current in the presence of [Ca2+]ext ([2]; control, 1.8 mM CaCl2, n=5): 0.21±0.04 nA | Shift of the reversal potential ΔEm ([2]; ramp pulses, holding potential −40 mV, mean±SEM): −25.8±4.6 mV | Influx of 45Ca2+ into colon cancer cells (T84 cells [3]): induced influx | Induced current after removal of [Ca2+]ext [4]: 0.07±0.04 nA

CC(=O)OCOC(=O)CN(CC(=O)OCOC(C)=O)c1ccccc1OCCOc1ccccc1N(CC(=O)OCOC(C)=O)CC(=O)OCOC(C)=O [BAPTA-AM]
Effect of agent on inhibition of proliferation induced by ST (T84 cells [1]): reversal; also recorded: abolished

O=C1CN(/N=C/c2ccc(-c3ccc([N+](=O)[O-])cc3)o2)C(O)=N1 [Dantrolene]
Effect of agent on inhibition of proliferation induced by ST (T84 cells [1]): did not reverse | Effect of agent on inhibition of proliferation induced by ST (T84 cells [1]; listed as dantrolene): did not affect

C[C@H](CCC(=O)O)C[C@H](C)C[C@H](C)C(=O)/C=C(\O)[C@H](C)C[C@H](C)C/C=C/[C@@H](C)[C@@H](O)[C@@H](C)[C@@H](O)C[C@@H]1CC[C@@](C)([C@H]2CC[C@@](C)([C@@H](C)O)O2)O1 [Ionomycin]
Effect on cell proliferation of agent on its own compared with ST (T84 cells [1]; ionomycin 1 μM, ST 1 μM): mimicked

CCCCCCOC(=O)[C@]1(O)C[C@@H]2O[C@@]1(C)n1c3ccccc3c3c4c(c5c6ccccc6n2c5c31)C(=O)NC4 [KT5720]
Effect of agent on inhibition of proliferation induced by ST (T84 cells [1]): did not alter | Ki [5]: 0.056 µM

COC(=O)[C@@]1(OC)C[C@H]2O[C@]1(C)n1c3ccccc3c3c4c(c5c6ccccc6n2c5c31)C(=O)N(C)C4 [KT5823]
Effect of agent on inhibition of proliferation induced by ST (T84 cells [1]): did not alter | Ki (PKG-I and -II): 234 nM

Nc1nc2c(nc(Sc3ccc(Cl)cc3)n2C2OC3COP(O)(=S)OC3C2O)c(=O)[nH]1 (centres unmarked) [RP8pCPT-cGMP]
Effect of agent on inhibition of proliferation induced by ST (T84 cells [1]): did not alter | Ki (PKG-I and -II): 500 nM

Nc1ncnc2c1ncn2[C@@H]1O[C@@H]2CO[P@@](O)(=S)O[C@H]2[C@H]1O [RP-cAMPs]
Effect of agent on inhibition of proliferation induced by ST (T84 cells [1]): did not alter | Ki [5]: 10 µM

Nc1nc2c(ncn2[C@@H]2O[C@@H]3COP(=O)(O)O[C@H]3[C@H]2O)c(=O)[nH]1 [cyclic GMP]
Release of matrix metalloproteinase 9 [6]: precisely mimicked | Organization of actin cytoskeleton [7]: prevented this organization

Cc1[nH]c(=O)c(C#N)cc1-c1ccncc1 [milrinone]
Effect of agent on inhibition of proliferation induced by ST (T84 cells [1]): did not alter

NC(=Nc1ccccc1)NC(=O)c1nc(Cl)c(N)nc1N [phenamil]
Effect of agent on inhibition of proliferation induced by ST (T84 cells [1]): did not affect; also recorded: did not reverse

charybdotoxin (QFTNVSCTTSKECWSVCQRLHNTSRGKCMNKKCRCYS)
Effect of agent on inhibition of proliferation induced by ST (T84 cells [1]): absence of charybdotoxin effect | Effect of agent on inhibition of proliferation induced by ST (T84 cells [1]; listed as CTX): did not reverse

uroguanylin: homologous ST receptor binding peptide produced locally in the intestine (NDDCELCVNVACTGCL; ends and bridges not checked; cysteine pairing not given here; UniProt Q16661 97-112, looked up)
Inhibition of proliferation of cancer cells [8]: inhibit the proliferation | Inhibition of proliferation of cancer cells [9]: inhibit the proliferation
